Laboratory results: patent US8044098B2, “Use of hydroxybenzoic acids and their esters and analogues for preventing or treating virus infection” (Shenghua Guangzhou Pharmaceutical Science & Technology Co., …, priority 2005, dated 2011)

Columns and labels:
[1] = test system: flat warts; test: Clinical use in treating flat warts; type: in vivo, human
Description: 5 g propyl gallate was mixed with 40 ml 1,2-propylene glycol and heated to dissolve the ingredients. Then 20 ml Tween-80 and 3 ml azone were added into the mixture and mixed well. Sterile distilled water was added to the mixture to reach a final volume of 100 ml.
Clinically, flat warts were seen as slightly raised, smooth, tan or flesh colored bumps ranging in size from 1-5 mm. They typically appeared on the face, backs of hands and arms.
32 male and 28 female patients of 15-46 years old, with the average age of 23 years old, were selected for the test. These patients have had flat warts for any time from 2 weeks to 2 years. Some of the patients have tried other treatment methods for the warts. But no one had undertaken any treatment for the warts in the past 4 weeks. And no one had taken any medicine in the past 2 weeks.
The patients were randomly divided into two groups of 30 patients each. One group was treated with propyl gallate micro emulsion, the other group with 5% imiquimod cream (made by Sichuan Ming Xin Pharmaceutical Co.), which is a medicine often used for treating flat warts. The test samples were applied to the affected areas of the patient groups three times a day, in the morning, at noon and night. The treatment period was 20 days. The treatment effect was tracked for one year.
“Recovered”: all warts had disappeared or faded, the skin became flat, no new warts appeared;
“Obvious Effect”: more than 70% of the warts had disappeared, the bottom of the warts had shrunk, the top of the warts had flattened;
“Improved”: more than 30% of the warts had disappeared, the top of the warts had flattened;
“Not Effective”: less than 30% of the warts had disappeared, no change to the warts, or some new warts appeared.

[2] = test system: HSV infection; test: External treatment of HSV infection in clinical tests; type: in vivo, human; details: patients with HSV infection
Excerpt: Twenty-two patients who were clinically diagnosed with HSV infection were randomly selected and divided into two groups. Acyclovir ointment and micro emulsion containing propyl gallate prepared as described in Example 1 were applied to the two groups, respectively, on the affected areas of the patients three times a day.

[3] = test system: HPV 6/11; test: Drug screening by quantitative fluorescent PCR analysis of HPV 6/11 in condyloma acuminata homogenate; parameters: species or system human papillomavirus (HPV)
[4] = number of patients of 30 per group, three times a day, 20 days

## CCCOC(=O)c1cc(O)c(O)c(O)c1 [Propyl gallate]
[1]; 20 days treatment
  effectiveness in treating flat warts compared with 5% imiquimod cream: more effective
[1]; followed for a year
  recurrence of the warts in recovered patients: none had recurrence
[1]; number of patients of 30 per group, applied three times a day, 20 days
  Recovered: 22
[1]; [4]
  Improved: 2
  Not Effective: 1
  Obvious Effect: 5
[1]; patients recovered or with obvious effect, of 30 per group
  Effective Rate: 90%
[2]
  effectiveness in treating HSV infection compared with acyclovir ointment: more effective
[2]; applied on affected areas three times a day
  average time for recovery: 3 days
[3]; 50 μl 10% micro emulsion + 50 μl HPV sample homogenate, 37° C., 24 hours, saline control 1.45 × 10^6
  HPV 6/11 Virus (copies/ml): 0 copies/ml
[3]; 24 hours after adding the test compound
  HPV 6/11 detected by FQ-PCR (in words): no HPV 6/11 or HPV 16/18 was detected
